{"source": "ChEMBL document CHEMBL3885861", "about": "“Open TG-GATES”", "species": "Rattus norvegicus", "assay": "Open TG-GATES - Regimen: Single", "format": "toxicity, organism-based, Sprague-Dawley", "set-up": "regimen Single, gender Male, age 6 weeks", "conditions": "in vivo, po, 40 mg/kg, route gavage, dose level Low; for KIDNEY_L / KIDNEY_R / KIDNEY_TOTAL: tissue Kidney; for LIVER: tissue Liver", "data": [{"molecule": "CCC(C)(C)C(=O)O[C@H]1C[C@@H](C)C=C2C=C[C@H](C)[C@H](CC[C@@H]3C[C@@H](O)CC(=O)O3)[C@H]21", "note": "[SIMVASTATIN]", "values": [{"measurement": "TBIL", "setting": "6 h, tissue Plasma", "result": 0.4, "unit": "mg/dL"}, {"measurement": "TC", "setting": "6 h, tissue Plasma", "result": 75.8, "unit": "mg/dL"}, {"measurement": "TG", "setting": "6 h, tissue Plasma", "result": 50.8, "unit": "mg/dL"}, {"measurement": "TP", "setting": "6 h, tissue Plasma", "result": 5.6, "unit": "g/dL"}, {"measurement": "gamma-GTP", "setting": "6 h, tissue Plasma", "result": 1.2, "unit": "IU/L"}, {"measurement": "TERMINAL_BW", "setting": "9 h", "result": 200.4, "unit": "g"}, {"measurement": "Bas", "setting": "9 h, tissue Blood", "result": 0, "unit": "%"}, {"measurement": "Eos", "setting": "9 h, tissue Blood", "result": 0.8, "unit": "%"}, {"measurement": "Fbg", "setting": "9 h, tissue Blood", "result": 214.8, "unit": "mg/dL"}, {"measurement": "Hb", "setting": "9 h, tissue Blood", "result": 13.2, "unit": "g/dL"}, {"measurement": "Ht", "setting": "9 h, tissue Blood", "result": 40.1, "unit": "%"}, {"measurement": "Lym", "setting": "9 h, tissue Blood", "result": 78.6, "unit": "%"}, {"measurement": "MCH", "setting": "9 h, tissue Blood", "result": 22, "unit": "pg"}, {"measurement": "MCHC", "setting": "9 h, tissue Blood", "result": 32.9, "unit": "%"}, {"measurement": "Mono", "setting": "9 h, tissue Blood", "result": 7.8, "unit": "%"}, {"measurement": "Neu", "setting": "9 h, tissue Blood", "result": 12.8, "unit": "%"}, {"measurement": "PT", "setting": "9 h, tissue Blood", "result": 11.7, "unit": "s"}, {"measurement": "Plat", "setting": "9 h, tissue Blood", "result": 110, "unit": "x10_4/uL"}, {"measurement": "RBC", "setting": "9 h, tissue Blood", "result": 601.2, "unit": "x10_4/ul"}, {"measurement": "Ret", "setting": "9 h, tissue Blood", "result": 9.1, "unit": "%"}, {"measurement": "WBC", "setting": "9 h, tissue Blood", "result": 101.8, "unit": "x10_2/uL"}, {"measurement": "KIDNEY_L", "setting": "9 h", "result": 0.9, "unit": "g"}, {"measurement": "KIDNEY_R", "setting": "9 h", "result": 0.9, "unit": "g"}, {"measurement": "KIDNEY_TOTAL", "setting": "9 h", "result": 1.8, "unit": "g"}, {"measurement": "LIVER", "setting": "9 h", "result": 8.2, "unit": "g"}, {"measurement": "ALP", "setting": "9 h, tissue Plasma", "result": 749.6, "unit": "IU/L"}, {"measurement": "ALT", "setting": "9 h, tissue Plasma", "result": 32.8, "unit": "IU/L"}, {"measurement": "AST", "setting": "9 h, tissue Plasma", "result": 58.4, "unit": "IU/L"}, {"measurement": "BUN", "setting": "9 h, tissue Plasma", "result": 12.6, "unit": "mg/dL"}, {"measurement": "CRE", "setting": "9 h, tissue Plasma", "result": 0.7, "unit": "mg/dL"}, {"measurement": "DBIL", "setting": "9 h, tissue Plasma", "result": 0.016, "unit": "mg/dL"}, {"measurement": "K", "setting": "9 h, tissue Plasma", "result": 4.6, "unit": "meq/L"}, {"measurement": "LDH", "setting": "9 h, tissue Plasma", "result": 91, "unit": "IU/L"}, {"measurement": "Na", "setting": "9 h, tissue Plasma", "result": 138, "unit": "meq/L"}, {"measurement": "PL", "setting": "9 h, tissue Plasma", "result": 118.4, "unit": "mg/dL"}, {"measurement": "RALB", "setting": "9 h, tissue Plasma", "result": 3.7, "unit": "g/dL"}, {"measurement": "TBIL", "setting": "9 h, tissue Plasma", "result": 0.4, "unit": "mg/dL"}, {"measurement": "TC", "setting": "9 h, tissue Plasma", "result": 64.8, "unit": "mg/dL"}, {"measurement": "TG", "setting": "9 h, tissue Plasma", "result": 42, "unit": "mg/dL"}, {"measurement": "TP", "setting": "9 h, tissue Plasma", "result": 5.4, "unit": "g/dL"}, {"measurement": "gamma-GTP", "setting": "9 h, tissue Plasma", "result": 2, "unit": "IU/L"}, {"measurement": "TERMINAL_BW", "setting": "24 h", "result": 216.2, "unit": "g"}, {"measurement": "Bas", "setting": "24 h, tissue Blood", "result": 0, "unit": "%"}, {"measurement": "Eos", "setting": "24 h, tissue Blood", "result": 1, "unit": "%"}, {"measurement": "Fbg", "setting": "24 h, tissue Blood", "result": 221.2, "unit": "mg/dL"}, {"measurement": "Hb", "setting": "24 h, tissue Blood", "result": 12.5, "unit": "g/dL"}, {"measurement": "Ht", "setting": "24 h, tissue Blood", "result": 38.2, "unit": "%"}, {"measurement": "Lym", "setting": "24 h, tissue Blood", "result": 78.6, "unit": "%"}, {"measurement": "MCHC", "setting": "24 h, tissue Blood", "result": 32.8, "unit": "%"}, {"measurement": "Mono", "setting": "24 h, tissue Blood", "result": 9.8, "unit": "%"}, {"measurement": "Neu", "setting": "24 h, tissue Blood", "result": 11, "unit": "%"}, {"measurement": "Plat", "setting": "24 h, tissue Blood", "result": 119.9, "unit": "x10_4/uL"}, {"measurement": "RBC", "setting": "24 h, tissue Blood", "result": 588.4, "unit": "x10_4/ul"}, {"measurement": "WBC", "setting": "24 h, tissue Blood", "result": 118.8, "unit": "x10_2/uL"}, {"measurement": "KIDNEY_L", "setting": "24 h", "result": 1, "unit": "g"}, {"measurement": "KIDNEY_R", "setting": "24 h", "result": 1, "unit": "g"}, {"measurement": "KIDNEY_TOTAL", "setting": "24 h", "result": 2, "unit": "g"}, {"measurement": "LIVER", "setting": "24 h", "result": 10.8, "unit": "g"}, {"measurement": "ALP", "setting": "24 h, tissue Plasma", "result": 866.2, "unit": "IU/L"}, {"measurement": "ALT", "setting": "24 h, tissue Plasma", "result": 41.6, "unit": "IU/L"}, {"measurement": "AST", "setting": "24 h, tissue Plasma", "result": 63.6, "unit": "IU/L"}, {"measurement": "BUN", "setting": "24 h, tissue Plasma", "result": 18.6, "unit": "mg/dL"}, {"measurement": "CRE", "setting": "24 h, tissue Plasma", "result": 0.5, "unit": "mg/dL"}, {"measurement": "Ca", "setting": "24 h, tissue Plasma", "result": 10.8, "unit": "mg/dL"}, {"measurement": "DBIL", "setting": "24 h, tissue Plasma", "result": 0.022, "unit": "mg/dL"}, {"measurement": "IP", "setting": "24 h, tissue Plasma", "result": 8.4, "unit": "mg/dL"}, {"measurement": "K", "setting": "24 h, tissue Plasma", "result": 4.6, "unit": "meq/L"}, {"measurement": "LDH", "setting": "24 h, tissue Plasma", "result": 108.4, "unit": "IU/L"}, {"measurement": "Na", "setting": "24 h, tissue Plasma", "result": 140.2, "unit": "meq/L"}, {"measurement": "PL", "setting": "24 h, tissue Plasma", "result": 144.6, "unit": "mg/dL"}, {"measurement": "RALB", "setting": "24 h, tissue Plasma", "result": 3.7, "unit": "g/dL"}, {"measurement": "TBIL", "setting": "24 h, tissue Plasma", "result": 0.3, "unit": "mg/dL"}]}]}
